Results as given in patent US20130072459A1, “PHARMACEUTICAL COMPOSITION FOR THE PREVENTION OR THE TREATMENT OF NON-ALCOHOLIC FATTY LIVER DISEASE AND THE METHOD FOR PREVENTION OR TREATMENT OF NON-ALCOHOLIC FATTY LIVER DISEASE USING THE SAME” (priority 2010, published 2013).

System: high fat diet-induced simple steatosis
Test: Therapeutic effects on high fat diet-induced simple steatosis in rats
Format: in vivo, Wistar rats
Method: 6-week old male rats (Wistar rats) were stabilized and then divided into 2 groups. Animal groups were respectively given a standard diet containing 10% fat (trade name: D12450B, manufactured by Research Diets) and a high fat diet containing 60% fat (trade name: D12492, manufactured by Research Diets) for 24 weeks. […] In order to supply 10 mg/kg which is a daily target dose of tartrate of Compound 1, a diet was formulated by mixing a high fat diet and 0.03% by weight of tartrate of Compound 1. 24 weeks after a supply of each diet, animals were divided into a high fat diet-fed group (n=8), a group fed with a high fat diet+0.03% by weight of tartrate of Compound 1 (n=8), and a standard diet-fed group (n=8), followed by feeding for another 14 weeks. Then, animals were dissected and sera were separated. Then, serum ALT levels (alanine aminotransferase), GPT, (glutamic pyruvate transaminase) were measured using a blood analyzer (FIG. 4). The excised liver was homogenized in a 5(v/v) % Triton-X solution, and a triglyceride working reagent [which was prepared by mixing a free glycerol reagent (F6428, Sigma) and a triglyceride reagent (T2449, Sigma) in a ratio of 4:1(v/v)] was added thereto, followed by measurement of an absorbance at 540 nm to determine the content of triglyceride (FIG. 5). In addition, in order to observe histological fat distribution, a portion of the excised liver was fixed in a 10(v/v) % formalin solution and then a tissue sample was prepared, followed by hematoxylin & eosin(HE) staining and photographing using an image analysis program (computerized image analysis) (FIG. 6, the violet-stained portion represents a normal liver tissue, and white portion represents lipid droplets). Thereafter, an area of lipid droplets/unit area of a sample was calculated (FIG. 7).

[1] = high fat diet + 0.03% drug for 14 weeks, vs high fat diet-fed group

CC(C)(C)OC[C@@H]1C(=O)NCCN1C(=O)C[C@H](N)Cc1cc(F)c(F)cc1F [tartrate of Compound 1, (R)-4-[(R)-3-amino-4-(2,4,5-trifluorophenyl)-butanoyl]-3-(t-butoxymethyl)piperazin-2-one]
significant decrease: serum alanine aminotransferase (ALT), result in words (high fat diet 24 weeks then high fat diet + 0.03% drug (target 10 mg/kg/day) for 14 weeks) | hepatic triglyceride content in hepatic triglyceride analysis, result in words [1] | hepatic triglyceride content in histological analysis (area of lipid droplets/unit area), result in words [1]
